Measured values as given in publication PMC10463259, “Efficient NADPH-dependent dehalogenation afforded by a self-sufficient reductive dehalogenase” (The Journal of Biological Chemistry, 2023).

Tests used:
[1] = molecular target: T1, JtRdhA (reductive dehalogenase) (Jhaorihella thermophila, UniProt A0A1H5TYU2); assay: substrate turnover by purified enzyme, NADPH consumption and HPLC; assay type: biochemical
T1 construct: gene SAMN05421751_103106; full-length, N-terminal His-MBP-TEV fusion (JtRdhA^MBP), WP_104007082
T1 sequence (A0A1H5TYU2 1-1069): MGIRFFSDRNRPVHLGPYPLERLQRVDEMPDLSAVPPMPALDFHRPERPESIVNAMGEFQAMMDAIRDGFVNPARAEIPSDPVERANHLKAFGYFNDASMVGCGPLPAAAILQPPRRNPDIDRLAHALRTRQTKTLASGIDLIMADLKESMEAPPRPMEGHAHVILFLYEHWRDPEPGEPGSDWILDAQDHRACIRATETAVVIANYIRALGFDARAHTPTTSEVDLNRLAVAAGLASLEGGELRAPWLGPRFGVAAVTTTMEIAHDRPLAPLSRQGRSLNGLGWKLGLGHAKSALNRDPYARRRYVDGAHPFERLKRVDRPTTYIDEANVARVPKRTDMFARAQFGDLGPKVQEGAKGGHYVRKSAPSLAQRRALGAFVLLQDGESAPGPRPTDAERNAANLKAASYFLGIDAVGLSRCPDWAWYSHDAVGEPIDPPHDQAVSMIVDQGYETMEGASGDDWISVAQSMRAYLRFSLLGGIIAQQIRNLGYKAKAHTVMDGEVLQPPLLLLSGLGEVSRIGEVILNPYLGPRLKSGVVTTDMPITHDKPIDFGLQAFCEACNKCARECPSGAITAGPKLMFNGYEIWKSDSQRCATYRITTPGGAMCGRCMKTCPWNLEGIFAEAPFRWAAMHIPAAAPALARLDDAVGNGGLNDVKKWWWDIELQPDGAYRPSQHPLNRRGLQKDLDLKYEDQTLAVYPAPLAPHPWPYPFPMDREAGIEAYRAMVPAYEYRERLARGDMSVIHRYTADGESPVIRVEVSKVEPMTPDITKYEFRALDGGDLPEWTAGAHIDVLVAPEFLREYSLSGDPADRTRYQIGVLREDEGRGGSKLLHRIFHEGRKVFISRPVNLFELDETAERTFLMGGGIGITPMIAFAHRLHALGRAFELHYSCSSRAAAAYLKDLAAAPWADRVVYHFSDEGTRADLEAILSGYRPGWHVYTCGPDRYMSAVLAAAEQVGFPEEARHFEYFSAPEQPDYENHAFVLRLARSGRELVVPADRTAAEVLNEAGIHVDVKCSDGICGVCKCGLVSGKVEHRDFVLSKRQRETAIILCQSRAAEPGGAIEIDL

[2] = molecular target: T1, JtRdhA (reductive dehalogenase); assay: biphasic turnover assay, LC-MS of debrominated products; assay type: biochemical
[3] = molecular target: T1, JtRdhA (reductive dehalogenase); assay: NADPH consumption assay, Dixon plot vs 35-DB-4-OH; assay type: biochemical
[4] = substrate: O=C(O)c1ccc(O)c(Br)c1; assay: steady-state kinetics by NADPH consumption (KM), purified enzyme; assay type: biochemical, Jhaorihella thermophila; details: cobalamin, 2x [4Fe-4S], [2Fe-2S], FMN
[5] = substrate: O=C(O)c1cc(Br)c(O)c(Br)c1; assay: EPR of cob(II)alamin with substrate (Br superhyperfine coupling); KM from steady-state NADPH oxidation; assay type: biochemical, Jhaorihella thermophila; details: cobalamin, 2x [4Fe-4S], [2Fe-2S], FMN active site; displaces chloride, substrate bromine atoms less than […] Å from the Co2+ ion

## O=C(O)c1cc(I)c(O)c(I)c1 [3,5 Diiodo-4-hydroxybenzoic acid]
[1]
  NADPH consumption μM min^-1: 124 ± 8 µM/min

## CC(C)(c1cc(Br)c(O)c(Br)c1)c1cc(Br)c(O)c(Br)c1 [compound 1, tetrabromobisphenol A]
[2]
  biphasic turnover assay, LC-MS of debrominated products: one of the most commonly used flame retardants TBBPA was determined to be a substrate for JtRdhA^MBP

## O=C(O)Cc1ccc(O)c(Br)c1 [3-bromo-4-hydroxyphenylacetic acid]
[1]
  NADPH consumption μM min^-1: 147 ± 3 µM/min

## O=C(O)c1cc(Cl)c(O)c(Cl)c1 [35-DC-4-OH, 3,5-dichloro-4-hydroxybenzoic acid]
[3]
  Ki: 13.7 ± 3.6 µM

## Oc1ccccc1I [2-Iodophenol, 2-iodophenol]
[1]
  NADPH consumption μM min^-1: 106 ± 3 µM/min

B1: JtRdhA (reductive dehalogenase) (Jhaorihella thermophila) (protein)
chain: MGIRFFSDRNRPVHLGPYPLERLQRVDEMPDLSAVPPMPALDFHRPERPESIVNAMGEFQAMMDAIRDGFVNPARAEIPSDPVERANHLKAFGYFNDASMVGCGPLPAAAILQPPRRNPDIDRLAHALRTRQTKTLASGIDLIMADLKESMEAPPRPMEGHAHVILFLYEHWRDPEPGEPGSDWILDAQDHRACIRATETAVVIANYIRALGFDARAHTPTTSEVDLNRLAVAAGLASLEGGELRAPWLGPRFGVAAVTTTMEIAHDRPLAPLSRQGRSLNGLGWKLGLGHAKSALNRDPYARRRYVDGAHPFERLKRVDRPTTYIDEANVARVPKRTDMFARAQFGDLGPKVQEGAKGGHYVRKSAPSLAQRRALGAFVLLQDGESAPGPRPTDAERNAANLKAASYFLGIDAVGLSRCPDWAWYSHDAVGEPIDPPHDQAVSMIVDQGYETMEGASGDDWISVAQSMRAYLRFSLLGGIIAQQIRNLGYKAKAHTVMDGEVLQPPLLLLSGLGEVSRIGEVILNPYLGPRLKSGVVTTDMPITHDKPIDFGLQAFCEACNKCARECPSGAITAGPKLMFNGYEIWKSDSQRCATYRITTPGGAMCGRCMKTCPWNLEGIFAEAPFRWAAMHIPAAAPALARLDDAVGNGGLNDVKKWWWDIELQPDGAYRPSQHPLNRRGLQKDLDLKYEDQTLAVYPAPLAPHPWPYPFPMDREAGIEAYRAMVPAYEYRERLARGDMSVIHRYTADGESPVIRVEVSKVEPMTPDITKYEFRALDGGDLPEWTAGAHIDVLVAPEFLREYSLSGDPADRTRYQIGVLREDEGRGGSKLLHRIFHEGRKVFISRPVNLFELDETAERTFLMGGGIGITPMIAFAHRLHALGRAFELHYSCSSRAAAAYLKDLAAAPWADRVVYHFSDEGTRADLEAILSGYRPGWHVYTCGPDRYMSAVLAAAEQVGFPEEARHFEYFSAPEQPDYENHAFVLRLARSGRELVVPADRTAAEVLNEAGIHVDVKCSDGICGVCKCGLVSGKVEHRDFVLSKRQRETAIILCQSRAAEPGGAIEIDL
notes: full-length, N-terminal His-MBP-TEV fusion (JtRdhA^MBP), WP_104007082
[4]
  Km: 21 ± 0.2 µM
[5]
  Km: 19 ± 0.7 µM
